The source of these data is ChEMBL document CHEMBL5247579, “Targeting PGAM1 in cancer: An emerging therapeutic opportunity” (Eur J Med Chem, 2022).

The test system of experiment [1] is KG-1a. The experiment can be described thus: Antiproliferative activity against human KG-1a cells assessed as decrease in cell viability incubated for 72 hrs by trypan blue exclusion assay. The experiment is classed as functional, cell-based.
The subject of experiment [2] is A549. Kind of experiment: Antiproliferative activity against human A549 cells assessed as reduction in cell viability incubated for 72 hrs by CCK8 assay. The class given is functional, cell-based. To be noted: A549, 72 h.
For experiment [3], the system named is PC-9. The experiment can be described thus: Antiproliferative activity against human PC-9 cells assessed as reduction in cell viability incubated for 72 hrs by CCK8 assay. The experiment is classed as functional, cell-based. Conditions: PC-9, 72 h. A general note: Tetrazolium dyes change colour on reduction, which living cells bring about.
The test system of experiment [4] is NCI-H1299. The experiment can be described thus: Antiproliferative activity against human NCI-H1299 cells assessed as decrease in cell viability incubated for 72 hrs by trypan blue exclusion assay. The class given is functional, cell-based. To be noted: NCI-H1299, 72 h.
Experiment [5] addresses T1, Phosphoglycerate mutase 1 (Homo sapiens, UniProt P18669). Kind of experiment: Inhibition of His6-tagged human PGAM1 expressed in Escherichia coli BL21(DE3)pLysS cells assessed as decrease in autofluorescence from oxidation of NADH in presence of LDH and pyruvate kinase M1 by multiple enzymes coupled assay.
Experiment [6] deals with MDA-MB-231. Kind of experiment: Antiproliferative activity against human MDA-MB-231 cells assessed as inhibition of cell proliferation incubated for 12 hrs by BrdU incorporation assay. The class given is functional, cell-based. To be noted: MDA-MB-231, 12 h. In general terms: Uptake of a labelled nucleoside into DNA is a usual measure of proliferation.
In experiment [7] the target is T1, Phosphoglycerate mutase 1. The experiment can be described thus: Inhibition of human PGAM1 in human MDA-MB-231 cells assessed as decrease in PGAM1 activity incubated for 2 hrs by UV/Vis spectrophotometry. The experiment is classed as cell-based.
In experiment [8] the target is T1, Phosphoglycerate mutase 1. Kind of experiment: Inhibition of recombinant PGAM1 (unknown origin) assessed as decrease in absorbance in presence of LDH, pyruvate kinase M2 and NADH by spectroscopic analysis.
Experiment [9] concerns A549. The experiment can be described thus: Antitumor activity against human A549 cells assessed as reduction in cell viability incubated for 72 hrs by CCK-8 assay. The experiment is classed as functional, cell-based. Conditions: A549, 72 h.
The subject of experiment [10] is HCC827. The experiment can be described thus: Antitumor activity against erlotinib-resistant human HCC827 cells assessed as reduction in cell viability incubated for 72 hrs by CCK-8 assay. Conditions: HCC827, 72 h. The experiment is classed as functional, cell-based.
The target in experiment [11] is T1, Phosphoglycerate mutase 1. The experiment can be described thus: Allosteric inhibition of PGAM1 (unknown origin) assessed as decrease in absorbance in presence of LDH, pyruvate kinase M2 and NADH by spectroscopic analysis.
Experiment [12] deals with HCC827. The experiment can be described thus: Antitumor activity against human HCC827 cells assessed as reduction in cell viability incubated for 72 hrs by CCK-8 assay. The experiment is classed as functional, cell-based. Conditions: HCC827, 72 h.
For experiment [13], the target named is T1, Phosphoglycerate mutase 1. Kind of experiment: Inhibition of His-tagged recombinant PGAM1 (unknown origin) expressed in Escherichia coli BL21 assessed as decrease in absorbance from oxidation of NADH in presence of LDH, pyruvate kinase M1 and NADH by microplate reader assay.
The test system of experiment [14] is NCI-H1299. Kind of experiment: Antiproliferative activity against human NCI-H1299 cells assessed as reduction in cell viability incubated for 72 hrs by MTT assay. The class given is functional, cell-based. Conditions: NCI-H1299, 72 h.
The subject of experiment [15] is A549. The experiment can be described thus: Antiproliferative activity against human A549 cells assessed as reduction in cell viability incubated for 72 hrs by MTT assay. The experiment is classed as functional, cell-based. To be noted: A549, 72 h.
For experiment [16], the system named is MIA PaCa-2. The experiment can be described thus: Antiproliferative activity against human MIA PaCa-2 cells assessed as reduction in cell viability incubated for 24 hrs by CCK-8 assay. Conditions: MIA PaCa-2, 24 h. The class given is functional, cell-based.
Experiment [17] relates to PANC-1. The experiment can be described thus: Antiproliferative activity against human PANC-1 cells assessed as reduction in cell viability incubated for 24 hrs by CCK-8 assay. The class given is functional, cell-based. Conditions: PANC-1, 24 h.
The test system of experiment [18] is ASPC1. The experiment can be described thus: Antiproliferative activity against human ASPC1 cells assessed as reduction in cell viability incubated for 24 hrs by CCK-8 assay. To be noted: ASPC1, 24 h. The class given is functional, cell-based.

The structures appear in SMILES notation.

T1 sequence (P18669 whole entry): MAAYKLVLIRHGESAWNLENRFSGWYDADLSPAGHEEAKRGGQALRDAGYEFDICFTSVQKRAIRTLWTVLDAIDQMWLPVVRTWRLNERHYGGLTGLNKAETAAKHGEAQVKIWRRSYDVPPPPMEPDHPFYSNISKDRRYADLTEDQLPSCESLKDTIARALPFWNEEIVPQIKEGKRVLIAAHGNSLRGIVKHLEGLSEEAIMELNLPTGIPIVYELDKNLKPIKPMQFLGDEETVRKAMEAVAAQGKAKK

For the compound `O=C1c2ccccc2C(=O)c2c1cc(S(=O)(=O)Nc1ccc(C(F)(F)F)cc1)c(O)c2O`, the EC50 (usually the concentration at which the effect is half-maximal) in experiment [1] came out at 17.1 µM; in [2] it was 38.7 µM; in experiment [3], 17.8 µM; in experiment [4] it was 25.6 µM.
`O=C1c2ccccc2C(=O)c2c1ccc(O)c2O` [ATHRAQUINONES A]: in experiment [1], the EC50 was 60.2 µM. The half-maximal inhibitory concentration (IC50) (commonly the concentration at which inhibition is half-maximal) in experiment [5] is over 20 µM.
As to `C#CCCCC(=O)OC(C)(C)C1CCCOC(OC(=O)N[C@@H](Cc2c[nH]c3ccccc23)C(=O)OCc2ccccc2)C1` (some centres not stated), in experiment [6], the IC50 is 19 µM. Moreover, the EC50 in experiment [7] amounted to 33 µM.
As to `O=C1c2ccccc2C(=O)c2c1cc(NS(=O)(=O)O)c(O)c2O`, the 50% inhibitory concentration (IC50) in experiment [8] is 5.4 µM.
On to `CN(C)c1ccc(S(=O)(=O)Nc2cc3c(c(O)c2O)C(=O)c2ccccc2C3=O)cc1`, for which the IC50 in experiment [8] amounted to 0.77 µM.
As for `O=C1c2ccccc2C(=O)c2c1cc(NS(=O)(=O)c1ccc(N3CCC3)cc1)c(O)c2O`, the figures for the half-maximal effective concentration (EC50) in [9], in experiment [10] and in experiment [12] were 5.62 µM, 1.02 µM and 1.71 µM, respectively. The IC50 in experiment [11] was 0.85 µM.
As for `CC(=O)Oc1ccccc1S(=O)(=O)Nc1cc2c(c(O)c1O)C(=O)c1ccccc1C2=O`, the IC50 in [13] worked out at 1 µM.
Turning to `[N-]=[N+]=NCCCCC(=O)Oc1ccccc1S(=O)(=O)Nc1cc2c(c(O)c1O)C(=O)c1ccccc1C2=O`, the IC50 in experiment [13] turned out to be 1.3 µM.
On to `O=C1c2ccccc2C(=O)c2c1cc(NS(=O)(=O)c1ccc(Cl)cc1)c(O)c2O`, for which the figures for the concentration giving a half-maximal response (EC50) in [14] and in [15] were 6.9 µM and 12.7 µM, respectively.
For the compound `O=C1c2ccccc2C(=O)c2c1cc(NS(=O)(=O)c1ccc(N3CCCC3)cc1)c(O)c2O`, the results for the EC50 in [16], in [17] and in experiment [18] were 0.271 µM, 0.501 µM and 0.51 µM, respectively. Moreover, the half-maximal inhibitory concentration (IC50) in [8] is 0.105 µM.
